What was measured:
Test in all cases: cells
CW-2 = assay type: functional, cell-based, Homo sapiens; conditions: Homo sapiens, CW-2;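 further: growth inhibition of CW-2 cells, read out by a cell viability assay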
Description: SANGER: Inhibition of human CW-2 cell growth in a cell viability assay.

D-392MG = assay type: functional, cell-based, Homo sapiens; conditions: Homo sapiens, D-392MG
DBTRG-05MG = assay type: functional, cell-based, Homo sapiens; conditions: Homo sapiens, DBTRG-05MG;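 further: cell viability assay measuring growth inhibition of human DBTRG-05MG cells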
Description: SANGER: Inhibition of human DBTRG-05MG cell growth in a cell viability assay.

DK-MG = assay type: functional, cell-based, Homo sapiens; conditions: Homo sapiens, DK-MG;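 further: growth inhibition of DK-MG cells, read out with a cell viability assay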
Description: SANGER: Inhibition of human DK-MG cell growth in a cell viability assay.

DMS-114 = assay type: functional, cell-based, Homo sapiens; conditions: Homo sapiens, DMS-114
Daoy = assay type: functional, cell-based, Homo sapiens; conditions: Homo sapiens, Daoy;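 further: daoy cell growth inhibition, read out as cell viability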
Description: SANGER: Inhibition of human Daoy cell growth in a cell viability assay.

EFM-19 = assay type: functional, cell-based, Homo sapiens; conditions: Homo sapiens, EFM-19;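 further: growth inhibition of human EFM-19 cells, measured in a cell viability assay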
Description: SANGER: Inhibition of human EFM-19 cell growth in a cell viability assay.

EGI-1 = assay type: functional, cell-based, Homo sapiens; conditions: Homo sapiens, EGI-1;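 further: cell viability readout used to gauge growth inhibition of EGI-1 cells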
Description: SANGER: Inhibition of human EGI-1 cell growth in a cell viability assay.

EKVX = assay type: functional, cell-based, Homo sapiens; conditions: Homo sapiens, EKVX;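 further: growth inhibition of human EKVX cells, read out with a cell viability assay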
Description: SANGER: Inhibition of human EKVX cell growth in a cell viability assay.

ESS-1 = assay type: functional, cell-based, Homo sapiens; conditions: Homo sapiens, ESS-1;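 further: growth inhibition of human ESS-1 cells, read out by a cell viability assay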
Description: SANGER: Inhibition of human ESS-1 cell growth in a cell viability assay.

HCC1937 = assay type: functional, cell-based, Homo sapiens; conditions: Homo sapiens, HCC1937;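 further: growth inhibition measured with a cell viability read-out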
Description: SANGER: Inhibition of human HCC1937 cell growth in a cell viability assay.

HGC-27 = assay type: functional, cell-based, Homo sapiens; conditions: Homo sapiens, HGC-27;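 further: growth inhibition of human HGC-27 cells, read out in a cell viability assay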
Description: SANGER: Inhibition of human HGC-27 cell growth in a cell viability assay.

HLE = assay type: functional, cell-based, Homo sapiens; conditions: Homo sapiens, HLE;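 further: growth inhibition of human HLE cells, read out by a cell viability assay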
Description: SANGER: Inhibition of human HLE cell growth in a cell viability assay.

HT-1080 = assay type: functional, cell-based, Homo sapiens; conditions: Homo sapiens, HT-1080
Description: SANGER: Inhibition of human HT-1080 cell growth in a cell viability assay.

IA-LM = assay type: functional, cell-based, Homo sapiens; conditions: Homo sapiens, IA-LM;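 further: cell viability assay measuring growth inhibition of human IA-LM cells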
Description: SANGER: Inhibition of human IA-LM cell growth in a cell viability assay.

IST-MES1 = assay type: functional, cell-based, Homo sapiens; conditions: Homo sapiens, IST-MES1;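 further: growth inhibition of IST-MES1 cells, measured with a cell viability assay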
Description: SANGER: Inhibition of human IST-MES1 cell growth in a cell viability assay.

JEG-3 = assay type: functional, cell-based, Homo sapiens; conditions: Homo sapiens, JEG-3;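 further: growth inhibition of human JEG-3 cells, read out with a cell viability assay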
Description: SANGER: Inhibition of human JEG-3 cell growth in a cell viability assay.

K5 = assay type: functional, cell-based, Homo sapiens; conditions: Homo sapiens, K5
Description: SANGER: Inhibition of human K5 cell growth in a cell viability assay.

KG-1 = assay type: functional, cell-based; conditions: Homo sapiens;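 further: growth inhibition of KG-1 cells, read out by a cell viability assay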
Description: SANGER: Inhibition of human KG-1 cell growth in a cell viability assay.

KM-H2 = assay type: functional, cell-based; conditions: Homo sapiens;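 further: growth inhibition of KM-H2 cells, read out by a cell viability assay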
Description: SANGER: Inhibition of human KM-H2 cell growth in a cell viability assay.

KP-4 = assay type: functional, cell-based, Homo sapiens; conditions: Homo sapiens, KP-4; read-out: IC50;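 further: human KP-4 cells, with growth inhibition read out through a cell viability assay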
Description: SANGER: Inhibition of human KP-4 cell growth in a cell viability assay.

KYSE-140 = assay type: functional, cell-based, Homo sapiens; conditions: Homo sapiens, KYSE-140;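 further: cell viability assay measuring growth inhibition in human KYSE-140 cells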
Description: SANGER: Inhibition of human KYSE-140 cell growth in a cell viability assay.

L-428 = assay type: functional, cell-based; conditions: Homo sapiens
Description: SANGER: Inhibition of human L-428 cell growth in a cell viability assay.

LB2241-RCC = assay type: functional, cell-based, Homo sapiens; conditions: Homo sapiens, LB2241-RCC;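 further: cell viability assay measuring how strongly the cultured human renal carcinoma line is prevented from growing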
Description: SANGER: Inhibition of human LB2241-RCC cell growth in a cell viability assay.

LB996-RCC = assay type: functional, cell-based; conditions: Homo sapiens
Description: SANGER: Inhibition of human LB996-RCC cell growth in a cell viability assay.

LS-411N = assay type: functional, cell-based, Homo sapiens; conditions: Homo sapiens, LS-411N
MDA-MB-361 = assay type: functional, cell-based, Homo sapiens; conditions: Homo sapiens, MDA-MB-361
MEL-HO = assay type: functional, cell-based, Homo sapiens; conditions: Homo sapiens, MEL-HO
Description: SANGER: Inhibition of human MEL-HO cell growth in a cell viability assay.

MKN-45 = assay type: functional, cell-based, Homo sapiens; conditions: Homo sapiens, MKN-45;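 further: growth inhibition of human MKN-45 cells, measured with a cell viability assay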
Description: SANGER: Inhibition of human MKN45 cell growth in a cell viability assay.

MMAC-SF = assay type: functional, cell-based, Homo sapiens; conditions: Homo sapiens, MMAC-SF;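 further: growth inhibition of human MMAC-SF cells, read out with a cell viability assay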
Description: SANGER: Inhibition of human MMAC-SF cell growth in a cell viability assay.

Mo = assay type: functional, cell-based; conditions: Homo sapiens
Description: SANGER: Inhibition of human Mo-T cell growth in a cell viability assay.

NCI-H1304 = assay type: functional, cell-based; conditions: Homo sapiens;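 further: growth inhibition of the cancer cell line, measured in a cell viability assay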
Description: SANGER: Inhibition of human NCI-H1304 cell growth in a cell viability assay.

NCI-H1993 = assay type: functional, cell-based, Homo sapiens; conditions: Homo sapiens, NCI-H1993;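 further: growth inhibition of the cancer cell line, assessed with a cell viability assay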
Description: SANGER: Inhibition of human NCI-H1993 cell growth in a cell viability assay.

NCI-H2405 = assay type: functional, cell-based, Homo sapiens; conditions: Homo sapiens, NCI-H2405;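 further: growth inhibition of the human cell line, read out with a cell viability assay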
Description: SANGER: Inhibition of human NCI-H2405 cell growth in a cell viability assay.

NCI-H446 = assay type: functional, cell-based; conditions: Homo sapiens;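 further: growth inhibition of NCI-H446 cells determined by a cell viability assay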
Description: SANGER: Inhibition of human NCI-H446 cell growth in a cell viability assay.

NKM-1 = assay type: functional, cell-based; conditions: Homo sapiens;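 further: growth inhibition of NKM-1 cells, read out with a cell viability assay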
Description: SANGER: Inhibition of human NKM-1 cell growth in a cell viability assay.

NUGC-3 = assay type: functional, cell-based, Homo sapiens; conditions: Homo sapiens, NUGC-3;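 further: growth inhibition of human NUGC-3 cells, read out with a cell viability assay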
Description: SANGER: Inhibition of human NUGC-3 cell growth in a cell viability assay.

OE33 = assay type: functional, cell-based, Homo sapiens; conditions: Homo sapiens, OE33;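 further: growth inhibition of human OE33 cells, measured by a cell viability assay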
Description: SANGER: Inhibition of human OE33 cell growth in a cell viability assay.

RCC10RGB = assay type: functional, cell-based, Homo sapiens; conditions: Homo sapiens, RCC10RGB;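 further: growth inhibition of human RCC10RGB cells, read out by a cell viability assay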
Description: SANGER: Inhibition of human RCC10RGB cell growth in a cell viability assay.

RCM-1 = assay type: functional, cell-based, Homo sapiens; conditions: Homo sapiens, RCM-1;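 further: growth inhibition of the RCM-1 line, determined with a cell viability readout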
Description: SANGER: Inhibition of human RCM-1 cell growth in a cell viability assay.

RD = assay type: functional, cell-based, Homo sapiens; conditions: Homo sapiens, RD
Description: SANGER: Inhibition of human RD cell growth in a cell viability assay.

RERF-LC-MS = assay type: functional, cell-based, Homo sapiens; conditions: Homo sapiens, RERF-LC-MS;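 further: growth inhibition of human RERF-LC-MS cells, read out by a cell viability assay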
Description: SANGER: Inhibition of human RERF-LC-MS cell growth in a cell viability assay.

SNB-75 = assay type: functional, cell-based, Homo sapiens; conditions: Homo sapiens, SNB-75;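 further: cell viability assay measuring growth inhibition of human SNB-75 cells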
Description: SANGER: Inhibition of human SNB75 cell growth in a cell viability assay.

SW1088 = assay type: functional, cell-based, Homo sapiens; conditions: Homo sapiens, SW1088;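 further: growth inhibition of human SW1088 cells, read out by a cell viability assay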
Description: SANGER: Inhibition of human SW1088 cell growth in a cell viability assay.

SW13 = assay type: functional, cell-based, Homo sapiens; conditions: Homo sapiens, SW13;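 further: IC50 is inhibition of SW13 cell growth, read out with a cell viability assay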
Description: SANGER: Inhibition of human SW13 cell growth in a cell viability assay.

SW48 = assay type: functional, cell-based, Homo sapiens; conditions: Homo sapiens, SW48;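 further: growth inhibition of SW48 cells, read out with a cell viability assay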
Description: SANGER: Inhibition of human SW48 cell growth in a cell viability assay.

ATN-1 = assay type: functional, cell-based; conditions: Homo sapiens;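 further: growth inhibition of human ATN-1 cells, read out with a cell viability assay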
Description: SANGER: Inhibition of human ATN-1 cell growth in a cell viability assay.

BFTC-909 = assay type: functional, cell-based, Homo sapiens; conditions: Homo sapiens, BFTC-909
Description: SANGER: Inhibition of human BFTC-909 cell growth in a cell viability assay.

C32 = assay type: functional, cell-based, Homo sapiens; conditions: Homo sapiens, C32;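 further: cell viability assay, with IC50 reflecting inhibition of C32 cell growth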
Description: SANGER: Inhibition of human C32 cell growth in a cell viability assay.

LB373-MEL-D = assay type: functional, cell-based, Homo sapiens; conditions: Homo sapiens, LB373-MEL-D;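 further: growth inhibition of the cell line, read out in a cell viability assay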
Description: SANGER: Inhibition of human LB373-MEL-D cell growth in a cell viability assay.

MFH-ino = assay type: functional, cell-based; conditions: Homo sapiens;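 further: growth inhibition of human MFH-ino cells, read out by a cell viability assay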
Description: SANGER: Inhibition of human MFH-ino cell growth in a cell viability assay.

O=C1N=C(NCc2cccs2)S/C1=C\c1ccc2ncccc2c1
IC50 (CW-2): > 5 µM
IC50 (D-392MG): > 5 µM
IC50 (DBTRG-05MG): > 5 µM
IC50 (DK-MG): > 5 µM
IC50 (DMS-114): > 5 µM
IC50 (Daoy): > 5 µM
IC50 (EFM-19): > 5 µM
IC50 (EGI-1): > 5 µM
IC50 (EKVX): > 5 µM
IC50 (ESS-1): > 5 µM
IC50 (HCC1937): > 5 µM
IC50 (HGC-27): > 5 µM
IC50 (HLE): > 5 µM
IC50 (HT-1080): > 5 µM
IC50 (IA-LM): > 5 µM
IC50 (IST-MES1): > 5 µM
IC50 (JEG-3): > 5 µM
IC50 (K5): > 5000 nM
IC50 (KG-1): > 5 µM
IC50 (KM-H2): > 5 µM
IC50 (KP-4): > 5 µM
IC50 (KYSE-140): > 5 µM
IC50 (L-428): > 5 µM
IC50 (LB2241-RCC): > 5 µM
IC50 (LB996-RCC): > 5 µM
IC50 (LS-411N): > 5 µM
IC50 (MDA-MB-361): > 5 µM
IC50 (MEL-HO): > 5 µM
IC50 (MKN-45): > 5 µM
IC50 (MMAC-SF): > 5 µM
IC50 (Mo): > 5 µM
IC50 (NCI-H1304): > 5 µM
IC50 (NCI-H1993): > 5 µM
IC50 (NCI-H2405): 4.74 µM
IC50 (NCI-H446): > 5 µM
IC50 (NKM-1): > 5 µM
IC50 (NUGC-3): > 5 µM
IC50 (OE33): > 5 µM
IC50 (RCC10RGB): > 5 µM
IC50 (RCM-1): > 5 µM
IC50 (RD): > 5 µM
IC50 (RERF-LC-MS): > 5 µM
IC50 (SNB-75): > 5 µM
IC50 (SW1088): > 5 µM
IC50 (SW13): > 5 µM
IC50 (SW48): > 5 µM
IC50 (ATN-1): > 5 µM
IC50 (BFTC-909): > 5 µM
IC50 (C32): > 5 µM

COc1ccc(C2=N[C@@H](c3ccc(Cl)cc3)[C@@H](c3ccc(Cl)cc3)N2C(=O)N2CCNC(=O)C2)c(OC(C)C)c1 [NUTLIN-3]
IC50 (CW-2): > 8 µM
IC50 (D-392MG): > 8 µM
IC50 (DBTRG-05MG): > 8 µM
IC50 (DK-MG): 2.62 µM
IC50 (DMS-114): > 8 µM
IC50 (Daoy): > 8 µM
IC50 (EFM-19): > 8 µM
IC50 (EGI-1): > 8 µM
IC50 (EKVX): > 8 µM
IC50 (ESS-1): > 8 µM
IC50 (HCC1937): > 8 µM
IC50 (HGC-27): > 8 µM
IC50 (HLE): > 8 µM
IC50 (HT-1080): 7.48 µM
IC50 (IA-LM): > 8 µM
IC50 (IST-MES1): 4.41 µM
IC50 (JEG-3): > 8 µM
IC50 (K5): 1420 nM
IC50 (KG-1): > 8 µM
IC50 (KM-H2): 7.89 µM
IC50 (KP-4): > 8 µM
IC50 (KYSE-140): > 8 µM
IC50 (L-428): > 8 µM
IC50 (LB2241-RCC): 3.66 µM
IC50 (LB996-RCC): 3.63 µM
IC50 (LS-411N): > 8 µM
IC50 (MDA-MB-361): > 8 µM
IC50 (MEL-HO): 5.86 µM
IC50 (MKN-45): > 8 µM
IC50 (MMAC-SF): > 8 µM
IC50 (Mo): > 8 µM
IC50 (NCI-H1304): > 8 µM
IC50 (NCI-H1993): > 8 µM
IC50 (NCI-H2405): > 8 µM
IC50 (NCI-H446): > 8 µM
IC50 (NKM-1): 1.05 µM
IC50 (NUGC-3): > 8 µM
IC50 (OE33): > 8 µM
IC50 (RCC10RGB): > 8 µM
IC50 (RCM-1): > 8 µM
IC50 (RD): > 8 µM
IC50 (RERF-LC-MS): > 8 µM
IC50 (SNB-75): > 8 µM
IC50 (SW1088): > 8 µM
IC50 (SW13): > 8 µM
IC50 (SW48): > 8 µM
IC50 (ATN-1): > 8 µM
IC50 (BFTC-909): > 8 µM
IC50 (C32): 5.6 µM

Cn1cc(C2=C(c3ccc(Cl)cc3Cl)C(=O)NC2=O)c2ccccc21 [SB-216763]
IC50 (CW-2): > 10 µM
IC50 (D-392MG): > 10 µM
IC50 (DBTRG-05MG): > 10 µM
IC50 (DK-MG): > 10 µM
IC50 (DMS-114): > 10 µM
IC50 (Daoy): > 10 µM
IC50 (EFM-19): > 10 µM
IC50 (EGI-1): > 10 µM
IC50 (EKVX): > 10 µM
IC50 (ESS-1): 9.6 µM
IC50 (HCC1937): > 10 µM
IC50 (HGC-27): > 10 µM
IC50 (HLE): > 10 µM
IC50 (HT-1080): > 10 µM
IC50 (IA-LM): > 10 µM
IC50 (IST-MES1): > 10 µM
IC50 (JEG-3): > 10 µM
IC50 (K5): 1540 nM
IC50 (KG-1): > 10 µM
IC50 (KM-H2): > 10 µM
IC50 (KP-4): > 10 µM
IC50 (KYSE-140): > 10 µM
IC50 (L-428): > 10 µM
IC50 (LB2241-RCC): 6.43 µM
IC50 (LB373-MEL-D): > 10 µM
IC50 (LS-411N): > 10 µM
IC50 (MDA-MB-361): > 10 µM
IC50 (MEL-HO): > 10 µM
IC50 (MFH-ino): > 10 µM
IC50 (MKN-45): > 10 µM
IC50 (MMAC-SF): > 10 µM
IC50 (Mo): > 10 µM
IC50 (NCI-H1304): > 10 µM
IC50 (NCI-H1993): 8.37 µM
IC50 (NCI-H2405): > 10 µM
IC50 (NCI-H446): > 10 µM
IC50 (NKM-1): > 10 µM
IC50 (NUGC-3): > 10 µM
IC50 (OE33): > 10 µM
IC50 (RCC10RGB): > 10 µM
IC50 (RCM-1): > 10 µM
IC50 (RD): > 10 µM
IC50 (RERF-LC-MS): > 10 µM
IC50 (SNB-75): > 10 µM
IC50 (SW1088): > 10 µM
IC50 (SW13): > 10 µM
IC50 (SW48): > 10 µM
IC50 (ATN-1): > 10 µM
IC50 (BFTC-909): > 10 µM
IC50 (C32): > 10 µM
